Data from article PMC12666239 (Chembiochem, 2025).
“And” between values parts separate entries of the source, which are not always exact repeats. Equal values may be shown once.

Target: Nsp3b^F360N/D361S (Severe acute respiratory syndrome coronavirus 2, UniProt P0DTD1, D1179S/F1178N)
Assay type: binding, SARS-CoV-2

N#C[C@@]1(c2ccc3c(N)ncnn23)O[C@H](COS(N)(=O)=O)[C@@H](O)[C@H]1O [compound 3]
TΔS: ≈ 0.10 kcal mol^−1
ΔG: −7.73 kcal mol^–1
ΔH: −7.83 ± 0.15 and −7.83 ± 0.15 kcal mol^–1
−TΔS: 0.104 kcal mol^–1
